How the values were obtained:
[1] = Stability of QC samples in rat plasma under handling and storage conditions; format: in vitro ADME; conditions: n = 3; for Accuracy (RE%), freeze-thaw stability / Mean concentration, freeze-thaw stability: 3 freeze-thaw cycles; for Accuracy (RE%), long term stability / Mean concentration, long term stability: 4 °C for 2 weeks; for Accuracy (RE%), autosampler stability / Mean concentration, autosampler stability: processed sample, 4 °C for 3 days; for Accuracy (RE%), benchtop stability / Mean concentration, benchtop stability: room temperature (25 °C) for 24 h
Protocol: (§1) Stock solutions of SH-1242 and IS were prepared at the concentrations of 1 mg/mL and 500 ng/mL in methanol, respectively. A serial dilution of the SH-1242 stock solution with methanol was carried out to obtain a set of SH-1242 standard solutions, and 5 µL aliquots of these standard solutions were added to 45 µL of blank plasma to prepare SH-1242 calibration standards at concentrations of 1, 2, 5, 10, 20, 50, 100, 200, 500, and 1000 ng/mL for rat plasma and 2, 5, 10, 20, 50, 100, 200, 500, and 1000 ng/mL for mouse plasma. Using similar dilution protocol, a batch of QC samples for SH-1242 was prepared at concentrations of 1 (LLOQ), 2 (low QC), 40 (mid QC), and 800 ng/mL (high QC) for rat plasma and 2 (LLOQ), 4 (low QC), 40 (mid QC), and 800 ng/mL (high QC) for mouse plasma. Samples were then processed according to the procedure described in Section 3.5.
(§2) The stability of SH-1242 and IS was evaluated under various storage and handling conditions. Stock solutions of SH-1242 and IS at concentrations of 1 mg/mL and 500 ng/mL, respectively, were stored at room temperature (25 °C) for 6 h, under refrigerated conditions (4 °C) for 24 h or 2 weeks, or under two different frozen conditions (−20 °C and −80 °C) for 2 weeks. Solutions of SH-1242 were diluted to 50 ng/mL prior to analysis. In addition, QC samples at three different concentrations (2 or 4 ng/mL, 40 ng/mL, and 800 ng/mL) were prepared and processed. The samples were then placed in various handling conditions (i.e., standing in an autosampler (4 °C for 3 days) or under bench-top condition (25 °C for 24 h), or subjected to three freeze-thaw cycles, or long-term refrigeration (4 °C for 2 weeks)). Mean peak areas of stock solutions were compared with those of fresh stock solutions. For QC samples, the results were compared with nominal concentrations. In this study, analytes were considered stable under test conditions when accuracies at each concentration were within 15% of nominal concentration.

[2] = Pharmacokinetic study after single intravenous administration to mice; format: in vivo; conditions: male, ICR, plasma, single intravenous 0.1 mg/kg, representative (one time point per mouse)
Protocol: (§3) To test the applicability of the current assay to pharmacokinetic studies, in preclinical animal species, male Sprague-Dawley rats (weighing 250–270 g) or ICR mice (weighing 18–20 g) were used. Prior to the experiment, animals fasted for 12 h with free access to water. SH-1242 was dissolved in a dosing vehicle consisting of dimethyl sulfoxide, PEG400 (Sigma-Aldrich, St. Louis, MO, USA), and normal saline in a ratio of 1:6:3 (v/v/v%), and intravenously bolus-injected to the right femoral vein at 2 mL/kg for rats or to the tail vein at 5 mL/kg for mice. In this study, the intravenous dose of SH-1242 was set at 0.1 mg/kg for both species. Blood samples (approximately 150 µL each) were collected in heparinized tubes via the right femoral artery at 2, 5, 15, 30, 60, 90, 120, 180, 240, 360, and 480 min after the administration to rats (n = 4) and via the retro-orbital plexus at 2, 5, 15, 30, 60, or 120 min after the administration to mice (n = 3 for each time point). For the mouse study, a blood sample was obtained once from each animal, and the animal was sacrificed after collection. Plasma was obtained by centrifuging blood samples at 16,100 g for 5 min at 4 °C and then processed, as described in Section 3.5. The plasma concentration versus time data was analyzed using the non-compartmental method in the WinNonlin software (WinNonlin Professional 5.0.1.; Pharsight, Mountain View, CA, USA) to calculate essential kinetic parameters, such as terminal phase half-life (T1/2), systemic clearance (CL), and steady-state volume of distribution (Vss).

[3] = Pharmacokinetic study after single intravenous administration to rats; format: in vivo; conditions: male, Sprague-Dawley, rat, plasma, single intravenous 0.1 mg/kg, n = 4, mean ± S.D.
Protocol: as §3

[4] = Stability of QC samples in mouse plasma under handling and storage conditions; format: in vitro ADME; conditions: n = 3; for Accuracy (RE%), freeze-thaw stability / Mean concentration, freeze-thaw stability: 3 freeze-thaw cycles; for Accuracy (RE%), long term stability / Mean concentration, long term stability: 4 °C for 2 weeks; for Accuracy (RE%), autosampler stability / Mean concentration, autosampler stability: processed sample, 4 °C for 3 days; for Accuracy (RE%), benchtop stability / Mean concentration, benchtop stability: room temperature (25 °C) for 24 h
Protocol: as §1, §2

[5] = Stability in stock solutions under typical storage conditions; format: physicochemical; conditions: stock solution in methanol (SH-1242 1 mg/mL, IS 500 ng/mL), n = 3
Protocol: as §1, §2

[6] = test system: hypoxia-mediated angiogenesis; parameters: method as in PMID 24875598; conditions: in vitro model of hypoxia-mediated angiogenesis; cited from earlier work
[7] = parameters: method as in PMID 11320671; conditions: rats; cited from earlier work

COc1ccc(CC(=O)c2ccc3c(c2OC)C=CC(C)(C)O3)cc1OC [SH-1242, 2-(3,4-dimethoxyphenyl)-1-(5-methoxy-2,2-dimethyl-2H-chromen-6-yl)ethanone]
Accuracy (RE%), freeze-thaw stability ([1]; HQC theoretical 800 ng/mL): –2.50%
Mean concentration, freeze-thaw stability ([1]; HQC theoretical 800 ng/mL): 780 ng/mL
Accuracy (RE%), freeze-thaw stability ([1]; LQC theoretical 2 ng/mL): –7.83%
Mean concentration, freeze-thaw stability ([1]; LQC theoretical 2 ng/mL): 1.84 ng/mL
Accuracy (RE%), freeze-thaw stability ([1]; MQC theoretical 40 ng/mL): 4.92%
Mean concentration, freeze-thaw stability ([1]; MQC theoretical 40 ng/mL): 41.97 ng/mL
Accuracy (RE%), long term stability ([1]; HQC theoretical 800 ng/mL): –8.71%
Mean concentration, long term stability ([1]; HQC theoretical 800 ng/mL): 730 ng/mL
Accuracy (RE%), long term stability ([1]; LQC theoretical 2 ng/mL): 0.833%
Mean concentration, long term stability ([1]; LQC theoretical 2 ng/mL): 2.02 ng/mL
Accuracy (RE%), long term stability ([1]; MQC theoretical 40 ng/mL): –6.75%
Mean concentration, long term stability ([1]; MQC theoretical 40 ng/mL): 37.3 ng/mL
Accuracy (RE%), autosampler stability ([1]; HQC theoretical 800 ng/mL): –3.33%
Mean concentration, autosampler stability ([1]; HQC theoretical 800 ng/mL): 773 ng/mL
Accuracy (RE%), autosampler stability ([1]; LQC theoretical 2 ng/mL): –0.167%
Mean concentration, autosampler stability ([1]; LQC theoretical 2 ng/mL): 2.00 ng/mL
Accuracy (RE%), autosampler stability ([1]; MQC theoretical 40 ng/mL): –2.75%
Mean concentration, autosampler stability ([1]; MQC theoretical 40 ng/mL): 38.9 ng/mL
Accuracy (RE%), benchtop stability ([1]; HQC theoretical 800 ng/mL): –7.88%
Mean concentration, benchtop stability ([1]; HQC theoretical 800 ng/mL): 737 ng/mL
Accuracy (RE%), benchtop stability ([1]; LQC theoretical 2 ng/mL): –6.33%
Mean concentration, benchtop stability ([1]; LQC theoretical 2 ng/mL): 1.87 ng/mL
Accuracy (RE%), benchtop stability ([1]; MQC theoretical 40 ng/mL): –6.83%
Mean concentration, benchtop stability ([1]; MQC theoretical 40 ng/mL): 37.3 ng/mL
AUC(0-inf) [2]: 24 ng·h/mL
MRT [2]: 0.493 h
clearance [2]: 69.4 mL/min/kg
half-life [2]: 0.438 h
Vd ([2]; read-out: Vss): 2.06 L/kg
AUC(0-inf) [3]: 55.8 ng·h/mL
MRT [3]: 2.48 h
clearance [3]: 30.5 ± 4.49 mL/min/kg
half-life [3]: 2.43 ± 0.983 h
Vd ([3]; read-out: Vss): 4.38 ± 0.716 L/kg
Accuracy (RE%), freeze-thaw stability ([4]; HQC theoretical 800 ng/mL): 5.00%
Mean concentration, freeze-thaw stability ([4]; HQC theoretical 800 ng/mL): 840 ng/mL
Accuracy (RE%), freeze-thaw stability ([4]; LQC theoretical 4 ng/mL): 11.3%
Mean concentration, freeze-thaw stability ([4]; LQC theoretical 4 ng/mL): 4.45 ng/mL
Accuracy (RE%), freeze-thaw stability ([4]; MQC theoretical 40 ng/mL): 6.00%
Mean concentration, freeze-thaw stability ([4]; MQC theoretical 40 ng/mL): 42.4 ng/mL
Accuracy (RE%), long term stability ([4]; HQC theoretical 800 ng/mL): 8.08%
Mean concentration, long term stability ([4]; HQC theoretical 800 ng/mL): 865 ng/mL
Accuracy (RE%), long term stability ([4]; LQC theoretical 4 ng/mL): –4.08%
Mean concentration, long term stability ([4]; LQC theoretical 4 ng/mL): 3.84 ng/mL
Accuracy (RE%), long term stability ([4]; MQC theoretical 40 ng/mL): 12.0%
Mean concentration, long term stability ([4]; MQC theoretical 40 ng/mL): 44.8 ng/mL
Accuracy (RE%), autosampler stability ([4]; HQC theoretical 800 ng/mL): 7.83%
Mean concentration, autosampler stability ([4]; HQC theoretical 800 ng/mL): 863 ng/mL
Accuracy (RE%), autosampler stability ([4]; LQC theoretical 4 ng/mL): 4.67%
Mean concentration, autosampler stability ([4]; LQC theoretical 4 ng/mL): 4.19 ng/mL
Accuracy (RE%), autosampler stability ([4]; MQC theoretical 40 ng/mL): 6.50%
Mean concentration, autosampler stability ([4]; MQC theoretical 40 ng/mL): 42.6 ng/mL
Accuracy (RE%), benchtop stability ([4]; HQC theoretical 800 ng/mL): 1.25%
Mean concentration, benchtop stability ([4]; HQC theoretical 800 ng/mL): 810 ng/mL
Accuracy (RE%), benchtop stability ([4]; LQC theoretical 4 ng/mL): 5.25%
Mean concentration, benchtop stability ([4]; LQC theoretical 4 ng/mL): 4.21 ng/mL
Accuracy (RE%), benchtop stability ([4]; MQC theoretical 40 ng/mL): 4.25%
Mean concentration, benchtop stability ([4]; MQC theoretical 40 ng/mL): 41.7 ng/mL
Relative conc. (%) vs initial ([5]; Refrigerated (4 °C, 2 Weeks)): 85.2%
Relative conc. (%) vs initial ([5]; Refrigerated (4 °C, 24 h)): 105%
Relative conc. (%) vs initial ([5]; Refrigerated (−20 °C, 2 Weeks)): 89.1%
Relative conc. (%) vs initial ([5]; Refrigerated (−80 °C, 2 Weeks)): 90.8%
Relative conc. (%) vs initial ([5]; Room Temp. (6 h)): 109%
effective concentration (antiangiogenic activity) [6]: ~10 nM

COc1cc2c(cc1OC)[C@@H]1C(=O)c3ccc4c(c3O[C@@H]1CO2)C=CC(C)(C)O4 [deguelin, reference compound]
CL [7]: 72.7 mL/min/kg
Vss [7]: 30.5 L/kg
Relative conc. (%) vs initial ([5]; Refrigerated (4 °C, 2 Weeks)): 92.3%
Relative conc. (%) vs initial ([5]; Refrigerated (4 °C, 24 h)): 105%
Relative conc. (%) vs initial ([5]; Refrigerated (−20 °C, 2 Weeks)): 91.4%
Relative conc. (%) vs initial ([5]; Refrigerated (−80 °C, 2 Weeks)): 86.2%
Relative conc. (%) vs initial ([5]; Room Temp. (6 h)): 101%
